# According to paper PMC9822021, “Biological Activity of Amidino-Substituted Imidazo [4,5-b]pyridines” (Molecules, 2022):
# Columns and labels:
# in vitro [1] = details: dog
# RSV A Long = assay: Antiviral CPE reduction assay; assay type: cell-based, respiratory syncytial virus A; details: human respiratory syncytial virus; CPE reduction, HEL 299 cells
# in vitro [2] = details: human
# Zika mr766 = assay: Antiviral CPE reduction assay; assay type: cell-based; details: Zika virus, Huh-7, Huh7 cells
# E. coli ATCC 25922 = assay: Antibacterial activity in vitro, broth microdilution; assay type: cell-based; details: Escherichia coli, ATCC25922; broth microdilution (CLSI), 16–24 h at 37 °C
# Summary of the method: (§1)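 CLSI broth microdilution in Ca-adjusted MH media; inoculum from direct colony suspension at 0.5 McFarland, further diluted 100×.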
# S. aureus ATCC 29213 = assay: as above; assay type: cell-based; details: Staphylococcus aureus, ATCC29213; broth microdilution (CLSI), 16–24 h at 37 °C
# Summary of the method: as §1
# S. Pneumoniae ATCC 49619 = assay: as above; assay type: cell-based; details: Streptococcus pneumoniae, ATCC49619; broth microdilution (CLSI), 16–24 h at 37 °C
# Summary of the method: as §1
# in vitro [3] = details: human; remark: listed apart in the source
# [4] = test system: SW620, HeLa and PC3 cancer cell lines; assay: In vitro antiproliferative activity, all three selected cell lines (MTT); assay type: cell-based; details: Homo sapiens, range over three cell lines, 72 h
# Excerpt: Human cancer cell lines used in this manuscript, namely Capan-1, HCT-116, NCI-H460, LN-229, HL-60, K-562, Z-138, SW620, PC3 and HeLa, were acquired from the American Type Culture Collection (ATCC, Manassas, VA, USA), while the DND-41 cell line was purchased from the Deutsche Sammlung von Mikroorganismen und Zellkulturen (DSMZ Leibniz-Institut, Germany). Culture media were purchased from Gibco Life Technologies, USA, and supplemented with 10% fetal bovine serum (HyClone, GE Healthcare Life Sciences, Chicago, IL, USA), except for the media for SW620, PC3 and HeLa cells, which were purchased from Sigma.
# Adherent cell lines LN-229, HCT-116, NCI-H460 and Capan-1 cells were seeded at a density between 500 and 1500 cells per well in 384-well tissue culture plates (Greiner). […]. Cells were incubated for 72 h with compounds and were then analyzed using the CellTiter 96® AQueous One Solution Cell Proliferation Assay (MTS) reagent (Promega) according to the manufacturer’s instructions. Absorbance of the samples was measured at 490 nm using a SpectraMax Plus 384 (Molecular Devices), and OD values were used to calculate the 50% inhibitory concentration (IC50). Compounds were tested in two independent experiments. […] After 72 h of incubation, the cell growth rate was evaluated using the MTT assay as described previously. […]
# HSV-1 KOS = assay: Antiviral CPE reduction assay; assay type: cell-based, herpes simplex virus-1; details: Human alphaherpesvirus 1
# [5] = test system: HCT-116 colorectal carcinoma cells; assay: In vitro antiproliferative activity, MTS proliferation assay; assay type: cell-based; details: Homo sapiens, 72 h
# [6] = test system: NCI-H460 lung carcinoma cells; assay: as above; assay type: cell-based; details: Homo sapiens, 72 h
# [7] = test system: LN-229 glioblastoma cells; assay: as above; assay type: cell-based; details: Homo sapiens, 72 h
# [8] = test system: K-562 chronic myeloid leukemia cells; assay: as above; assay type: cell-based; details: Homo sapiens, K562, 72 h
# YFV 17D = assay: microbe, parasite or virus in culture; assay type: cell-based; details: Yellow fever virus, Huh-7, read-out: EC50 YFV 17D Huh7
# [9] = test system: Z-138 non-Hodgkin lymphoma cells; assay: In vitro antiproliferative activity, MTS proliferation assay; assay type: cell-based, human; details: Homo sapiens, Z-138, 72 h
# Summary of the method: (§2)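 MTT lines (SW620, PC3, HeLa): 1 × 10^4–3 × 10^4 cells/mL, 10^−8–10^−4 M in 10-fold steps, 72 h, A570, IC50 from OD, quadruplicate, n≥2. Z-138: MTS after 72 h, A490, IC50, two independent runs.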
# [10] = test system: Capan-1 pancreatic adenocarcinoma cells; assay: as above; assay type: cell-based; details: Homo sapiens, 72 h
# Summary of the method: (§3)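 Cells grown in media with 10% FBS were incubated 72 h with compounds, then viability was read with MTS reagent. Compounds were tested in two independent experiments.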
# [11] = test system: HL-60 acute myeloid leukemia cells; assay: as above; assay type: cell-based; details: Homo sapiens, 72 h
# Summary of the method: as §3
# [12] = test system: DND-41 acute lymphoblastic leukemia cells; assay: as above; assay type: cell-based; details: Homo sapiens, DND41, 72 h
# Summary of the method: as §3
# Sindbis = assay: Antiviral CPE reduction assay; assay type: cell-based; details: Sindbis virus, Huh-7, Huh7 cells
# [13] = test system: PC3 prostate carcinoma cells; assay: In vitro antiproliferative activity, MTT assay; assay type: cell-based; details: Homo sapiens, 72 h
# Summary of the method: as §2
# [14] = test system: SW620 colon carcinoma cells; assay: In vitro antiproliferative activity, MTT assay; assay type: cell-based; details: Homo sapiens, SW-620, 72 h
# Summary of the method: as §2
# [15] = test system: HeLa cervical carcinoma cells; assay: In vitro antiproliferative activity, MTT assay; assay type: cell-based; details: Homo sapiens, 72 h
# Summary of the method: as §2
# HCoV OC43 = assay: Antiviral CPE reduction assay; assay type: cell-based, human coronavirus OC43; details: Betacoronavirus 1, OC43, HEL 299 cells
# [16] = test system: Influenza B (B/Ned/537/05); assay: Antiviral CPE reduction assay; assay type: cell-based; details: Influenza B virus, MDCK cells
# E. coli Efflux Del = assay: microbe, parasite or virus in culture; assay type: cell-based; details: Escherichia coli, read-out: MIC E. coli Efflux Del
# Summary of the method: as §1
# HCoV NL63 = assay: Antiviral CPE reduction assay; assay type: cell-based; details: Human coronavirus NL63, Huh-7, Huh7 cells
# [17] = test system: Influenza H1N1 (A/Ned/378/05); assay: Antiviral CPE reduction assay; assay type: cell-based; details: Influenza A virus, MDCK cells
# [18] = test system: Influenza H3N2 (A/HK/7/87); assay: Antiviral CPE reduction assay; assay type: cell-based; details: Influenza A virus, MDCK cells
# HCoV 229E = assay: Antiviral CPE reduction assay; assay type: cell-based; details: Human coronavirus 229E, HEL 299 cells
# [19] = Cytotoxicity in virus host cell line, MTS assay; details: dog
smiles,measurement,setting,value
"N#Cc1ccc(-c2nc3ncc(Br)cc3[nH]2)cc1 [Compound 8, 4-(6-Bromo-1H-imidazo[4,5-b]pyridin-2-yl)benzonitrile]",CC50,in vitro [1],> 100 µM
same,EC50,RSV A Long,> 100 µM
same,CC50,in vitro [2],> 100 µM
same,EC50,Zika mr766,> 100 µM
same,melting point,,> 300 °C
same,MIC,E. coli ATCC 25922,> 64 µM
same,MIC,S. aureus ATCC 29213,> 64 µM
same,MIC,S. Pneumoniae ATCC 49619,> 64 µM
same,CC50,in vitro [3],> 100 µM
same,IC50,[4],1.8 to 3.2 µM
same,EC50,HSV-1 KOS,> 100 µM
same,IC50,[5],> 100 µM
same,IC50,[6],> 100 µM
same,IC50,[7],> 100 µM
same,IC50,[8],> 100 µM
same,EC50,YFV 17D,> 100 µM
same,IC50,[9],> 100 µM
same,IC50,[10],> 100 µM
same,IC50,[11],> 100 µM
same,IC50,[12],> 100 µM
same,EC50,Sindbis,> 100 µM
same,IC50,[13],3.2 ± 0.7 µM
same,IC50,[14],2 ± 0.2 µM
same,IC50,[15],1.8 ± 0.02 µM
same,EC50,HCoV OC43,> 100 µM
same,EC50,[16],56.7 ± 10.2 µM
same,MIC,E. coli Efflux Del,> 64 µM
same,EC50,HCoV NL63,> 100 µM
same,EC50,[17],72.4 ± 8 µM
same,EC50,[18],35.9 ± 12.4 µM
same,EC50,HCoV 229E,> 100 µM
"CC(N)C12CC3CC(CC(C3)C1)C2 (centres unmarked) [Rimantadine, rimantadine, reference compound]",CC50,[19],> 100 µM
same,EC50,[16],> 100 µM
same,EC50,[17],4.4 ± 4.2 µM
same,EC50,[18],0.05 ± 0.05 µM
